One compound from patent US7524962B2, “Biphenyl compounds useful as muscarinic receptor antagonists” (Theravance, Inc., priority 2004, dated 2009) can be followed below.

SMILES strings stand for the structures.

The target of the assay is T1, hM3 muscarinic receptor subtype (Homo sapiens, UniProt P20309).
T1 construct: expressed in transfected cells; crude membranes
Briefly: Radioligand binding assay ([3H]-NMS displacement), CHO cell membranes. The note with it: [3H]-NMS at 1 nM, CHO cell membranes expressing hM3, 60 minutes at 37° C.; read-out: Ki value for the M3 muscarinic receptor subtype. As to the method: A. Membrane Preparation from Cells Expressing hM1, hM2, hM3 and hM4 Muscarinic Receptor Subtypes
CHO (Chinese hamster ovary) cell lines stably expressing cloned human hM1, hM2, hM3 and hM4 muscarinic receptor subtypes, respectively, were grown to near confluency in medium consisting of HAM's F-12 supplemented with 10% FBS (Fetal Bovine Serum) and 250 μg/mL Geneticin. The cells were grown in a 5% CO2, 37° C. incubator and lifted with 2 mM EDTA in dPBS. Cells were collected by 5 minute centrifugation at 650×g, and cell pellets were either stored frozen at −80° C. or membranes were prepared immediately. […] The protein concentration of the membrane suspension was determined by the method described in Lowry, O. et al., Journal of Biochemistry 193:265 (1951). […]
Radioligand binding assays were performed in 96-well microtiter plates in a total assay volume of 100 μL. […] Filter plates were rinsed three times with wash buffer (10 mM HEPES) to remove unbound radioactivity. […] The plates were then counted in a PerkinElmer Topcount liquid scintillation counter (PerkinElmer Inc., Wellesley, Mass.). Binding data were analyzed by nonlinear regression analysis with the GraphPad Prism Software package (GraphPad Software, Inc., San Diego, Calif.) using the one-site competition model. […]

T1 sequence (P20309 whole entry): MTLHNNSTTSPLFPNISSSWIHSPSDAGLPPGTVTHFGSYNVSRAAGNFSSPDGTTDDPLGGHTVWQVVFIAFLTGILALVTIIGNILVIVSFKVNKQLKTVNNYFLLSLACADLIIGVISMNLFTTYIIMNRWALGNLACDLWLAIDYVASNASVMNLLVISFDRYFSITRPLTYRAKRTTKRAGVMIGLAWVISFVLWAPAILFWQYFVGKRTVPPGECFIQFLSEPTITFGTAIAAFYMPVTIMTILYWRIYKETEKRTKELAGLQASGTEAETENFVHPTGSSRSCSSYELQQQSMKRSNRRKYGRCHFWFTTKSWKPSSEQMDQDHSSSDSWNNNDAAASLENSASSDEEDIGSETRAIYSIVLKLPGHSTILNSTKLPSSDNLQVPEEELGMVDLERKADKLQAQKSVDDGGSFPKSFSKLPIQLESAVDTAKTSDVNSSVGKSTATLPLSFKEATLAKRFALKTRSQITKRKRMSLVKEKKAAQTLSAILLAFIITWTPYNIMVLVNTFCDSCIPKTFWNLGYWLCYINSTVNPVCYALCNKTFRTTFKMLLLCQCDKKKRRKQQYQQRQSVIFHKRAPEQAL

The Ki is a measure of affinity in units of concentration, obtained from inhibition or displacement. Take `NC(=O)C1CCN(CCCCCNC(=O)CCN2CCC(OC(=O)Nc3ccccc3-c3ccccc3)CC2)CC1` [Example 1, Biphenyl-2-ylcarbamic Acid 1-{2-[5-(4-Carbamoylpiperidin-1-yl)pentylcarbamoyl]ethyl}piperidin-4-yl Ester]: the Ki is under 5 nM.
